The record followed here is ChEMBL document CHEMBL1138798, “A docking score function for estimating ligand-protein interactions: application to acetylcholinesterase inhibition” (J Med Chem, 2004).

For experiment [1], the target named is T1, Acetylcholinesterase (Homo sapiens, UniProt P22303).
Description: Binding affinity towards Acetylcholinesterase
Experiment [2] deals with T1, Acetylcholinesterase. This is another data set of the same source.
Description: Inhibitory activity against Acetylcholinesterase enzyme using human AChE assay

T1 sequence (P22303 whole entry): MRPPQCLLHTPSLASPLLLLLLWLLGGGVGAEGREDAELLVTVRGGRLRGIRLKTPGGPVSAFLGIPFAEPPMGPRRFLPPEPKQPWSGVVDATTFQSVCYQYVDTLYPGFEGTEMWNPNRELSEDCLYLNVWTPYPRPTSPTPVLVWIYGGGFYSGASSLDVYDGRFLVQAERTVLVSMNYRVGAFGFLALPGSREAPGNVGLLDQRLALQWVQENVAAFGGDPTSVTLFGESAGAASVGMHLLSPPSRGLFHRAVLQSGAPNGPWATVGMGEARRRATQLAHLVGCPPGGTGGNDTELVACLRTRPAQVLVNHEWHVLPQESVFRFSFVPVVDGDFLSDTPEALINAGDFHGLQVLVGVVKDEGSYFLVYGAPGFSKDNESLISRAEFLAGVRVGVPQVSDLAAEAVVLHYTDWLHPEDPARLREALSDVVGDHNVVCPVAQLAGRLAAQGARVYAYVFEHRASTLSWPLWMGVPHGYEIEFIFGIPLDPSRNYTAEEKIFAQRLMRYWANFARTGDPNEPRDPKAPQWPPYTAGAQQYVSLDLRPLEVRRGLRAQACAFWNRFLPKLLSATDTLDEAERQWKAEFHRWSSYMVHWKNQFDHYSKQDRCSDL

The compound `COc1cc2c(cc1OC)C(=O)C(C1CC[N+](C)(Cc3ccccc3)CC1)=C2` (stereo unspecified) gave a Ki in experiment [1] of 251 nM. Also, the half-inhibitory concentration (IC50) in experiment [2] was 250 nM.
Turning to `COc1cc2cc(C(=O)C3CC[N+](C)(Cc4ccccc4)CCC3OC)sc2cc1OC` (stereo unspecified), affinity in experiment [1] was put at a Ki of 120 nM. The compound further displayed an IC50 in experiment [2] of 120 nM.
With `COc1cc2c(cc1OC)SC(C(=O)CC1C=CC[N+](C)(Cc3ccccc3)CC1)C2` (stereo unspecified), the Ki in experiment [1] was 759 nM. Moreover, in experiment [2], half-maximal inhibition (IC50) was put at 750 nM.
For `COc1cc2cc(C(=O)C3CCC[N+](C)(Cc4ccccc4)CC3)sc2cc1OC` (stereo unspecified), the affinity in experiment [1] corresponds to a Ki of 7.94 nM. This compound also came in with an IC50 in experiment [2] of 8 nM.
`CCOCC[n+]1ccc(CCC(=O)C2Cc3cc(OC)c(OC)cc3S2)cc1` (stereo unspecified): the Ki in experiment [1] is 7.08 nM. Half-maximal inhibition in experiment [2] (IC50) required 7 nM.
As to `CCC[n+]1ccc(CCC(=O)C2Cc3cc(OC)c(OC)cc3S2)cc1` (stereo unspecified), the Ki in experiment [1] was 2570 nM. Also, the half-maximal inhibitory concentration (IC50) in experiment [2] is 2570 nM.
Take `COc1cc2c(cc1OC)SC(CC1CC[N+](C)(Cc3ccccc3)CC1)C2` (stereo unspecified): in experiment [1], the Ki was 30200 nM. This compound returned an IC50 in experiment [2] of 30000 nM.
With `COc1cc2c(cc1OC)SC(C(=O)CC(O)C1CC[N+](C)(Cc3ccccc3)CC1)C2` (stereo unspecified), the Ki in experiment [1] is 191 nM. In addition, half-maximal inhibition in experiment [2] (IC50) was put at 190 nM.
`COc1cc2cc(C3CC[N+](C)(Cc4ccccc4)CC3O)sc2cc1OC` (stereo unspecified): the Ki in experiment [1] is 19500 nM. The compound also yielded an IC50 in experiment [2] of 19600 nM.
Compound `COc1cc2c(cc1OC)SC(C(=O)CCc1cc[n+](Cc3ccc(F)cc3)cc1)C2` (stereo unspecified) had an inhibition constant (Ki) in experiment [1] of 2.57 nM. The compound also had an IC50 in experiment [2] of 2.6 nM.
In turn, `COc1cc2cc(C(=O)C3=CC[N+](C)(Cc4ccccc4)CC3)sc2cc1OC` (stereo unspecified) gave a Ki in experiment [1] of 525 nM. The same compound yielded an IC50 in experiment [2] of 520 nM.
In turn, `COc1cc2cc(C(=O)C3CCC[N+](C)(CC#N)CC3)sc2cc1OC` (stereo unspecified) gave a Ki in experiment [1] of 1000 nM. Also, it took 1000 nM to reach half-maximal inhibition in experiment [2] (IC50).
On to `COC(=O)C[N+]1(C)CCC(CCC(=O)C2Cc3cc(OC)c(OC)cc3S2)CC1` (stereo unspecified), for which the affinity in experiment [1], expressed as Ki, was 53.7 nM. The same compound gave an IC50 in experiment [2] of 54 nM.
In the case of `CC[n+]1ccc(CCC(=O)C2Cc3cc(OC)c(OC)cc3S2)cc1` (stereo unspecified), the Ki in experiment [1] is 282 nM. The IC50 in experiment [2] was 280 nM.
Take `COc1cc2onc(CCC3CCN(Cc4ccccc4)CC3)c2cc1C`: in experiment [1], the Ki was 5.75 nM. The compound also displayed an IC50 in experiment [2] of 5.8 nM.
`C=CC[n+]1ccc(CCC(=O)C2Cc3cc(OC)c(OC)cc3S2)cc1` (stereo unspecified) gave a Ki in experiment [1] of 219 nM. The same compound displayed an IC50 in experiment [2] of 6.27 nM.
In experiment [1], `COc1cc2c(cc1OC)SC(C(=O)CCc1cc[n+](CC3CC3)cc1)C2` (stereo unspecified) showed an inhibition constant (Ki) of 110 nM. Further, 110 nM corresponded to half-maximal inhibition in experiment [2] (IC50).
Consider `COCC[n+]1ccc(CCC(=O)C2Cc3cc(OC)c(OC)cc3S2)cc1` (stereo unspecified), for which the inhibitory constant (Ki) in experiment [1] is 30.2 nM. Moreover, in experiment [2], the IC50 stood at 30 nM.
`COc1cc2cc(C3=CC[N+](C)(Cc4ccccc4)CC3)sc2cc1OC` (stereo unspecified) gave a Ki in experiment [1] of 2690 nM. The compound also came in with an IC50 in experiment [2] of 2670 nM.
For `C[N+]1(Cc2ccccc2)CCC(CCC(=O)c2ccc3c(c2)OCO3)CC1` (stereo unspecified), the affinity in experiment [1] corresponds to a Ki of 41.7 nM. In experiment [2], the half-inhibitory concentration (IC50) was 41.5 nM.
`C[N+]1(Cc2ccccc2)CCC(CCC(=O)c2ccc3c(c2)CCCCO3)CC1` (stereo unspecified) gave a Ki in experiment [1] of 138 nM.
In turn, `O=C1Cc2cc3onc(CCC4CCN(Cc5ccccc5)CC4)c3cc2N1` gave a Ki in experiment [1] of 0.955 nM.
The same measure, in the same setting: in the case of `O=C1CCc2cc3c(CCC4CCN(Cc5ccccc5)CC4)noc3cc2N1` it was 0.575 nM; in that of `Brc1ccc2c(CCC3CCN(Cc4ccccc4)CC3)noc2c1`, 50.1 nM.
As to `COc1cc2cc(C(=O)C3CC[N+](C)(Cc4ccccc4)CCC3O)sc2cc1OC` (stereo unspecified), the Ki in experiment [1] was 42.7 nM. Also, the IC50 in experiment [2] was determined as 43 nM.
The compound `COc1cc2cc(C(=O)CC3CCCC[N+](C)(Cc4ccccc4)CC3)sc2cc1OC` (stereo unspecified) had an inhibition constant (Ki) in experiment [1] of 110 nM. Besides, the IC50 in experiment [2] was found to be 110 nM.
For the compound `COc1cc2c(cc1OC)SC(C(=O)CCc1cc[n+](Cc3ccsc3)cc1)C2` (stereo unspecified), in experiment [1], the affinity corresponds to a Ki of 6.03 nM. For the same compound, the midpoint of inhibition in experiment [2], the IC50, lay at 6 nM.
In experiment [1], `O=C(CCc1cc[n+](Cc2ccccc2)cc1)c1ccc2c(c1)OCO2` had a Ki of 240 nM. This compound also had an IC50 in experiment [2] of 240 nM.
With `COCC[N+]1(C)CCCC(C(=O)c2cc3cc(OC)c(OC)cc3s2)CC1` (stereo unspecified), in experiment [1], the Ki was 52.5 nM. This compound also showed a half-inhibitory concentration (IC50) in experiment [2] of 53 nM.
In experiment [1], `COc1cc2cc(C(=O)C3CCC[N+](C)(CC(=O)OC(C)(C)C)CC3)sc2cc1OC` (stereo unspecified) showed a Ki of 79.4 nM. Moreover, the IC50 in experiment [2] amounted to 79 nM.
As for `COc1cc2c(cc1OC)SC(C(=O)CCc1cc[n+](CC3CCC3)cc1)C2` (stereo unspecified), the affinity in experiment [1] corresponds to a Ki of 39.8 nM. Moreover, the IC50 in experiment [2] was 40 nM.
Take `COc1cc2c(cc1OC)SC(C(=O)CCc1cc[n+](C)cc1)C2` (stereo unspecified): affinity in experiment [1] was put at a Ki of 891 nM. The IC50 in experiment [2] amounted to 900 nM.
`CN1C(=O)Cc2cc3onc(CCC4CCN(Cc5ccccc5)CC4)c3cc21` gave a Ki in experiment [1] of 0.479 nM. Besides, in experiment [2], the midpoint of inhibition, the IC50, lay at 0.48 nM.
Compound `COc1cc2cc(C(=O)CCC3CC[N+](C)(Cc4ccccc4)CC3)n(C)c2cc1OC` (stereo unspecified) had a Ki in experiment [1] of 120 nM.
Regarding `Cc1ccc2onc(CCC3CCN(Cc4ccccc4)CC3)c2c1`, in experiment [1], the Ki was 7.76 nM.
For `COc1cc2c(cc1OC)SC(C(=O)CCc1cc[n+](Cc3coc([N+](=O)[O-])c3)cc1)C2` (stereo unspecified), in experiment [1], the inhibitory constant (Ki) is 4.47 nM. Moreover, the IC50 in experiment [2] amounted to 4.5 nM.
`COc1cc2cc(C(=O)C3CCC[N+](C)(Cc4ccc([N+](=O)[O-])o4)CC3)sc2cc1OC` (stereo unspecified): the Ki in experiment [1] was 32.4 nM. This compound also came in with an IC50 in experiment [2] of 32 nM.
The compound `C[N+]1(Cc2ccccc2)CCC(CCC(=O)c2ccc3c(c2)OCCO3)CC1` (stereo unspecified) had a Ki in experiment [1] of 100 nM.
On to `Cc1cc(C(=O)CCC2CC[N+](C)(Cc3ccccc3)CC2)nn1-c1ccccc1` (stereo unspecified), for which the Ki in experiment [1] is 21.9 nM.
The same measure, in the same setting: with `COc1ccc2cc(C(=O)CCC3CC[N+](C)(Cc4ccccc4)CC3)ccc2c1` (stereo unspecified) the figure was 50.1 nM; with `CC(=O)Nc1ccc2c(CCC3CCN(Cc4ccccc4)CC3)noc2c1`, 2.82 nM; with `N#Cc1ccc2c(CCC3CCN(Cc4ccccc4)CC3)noc2c1`, 100 nM.
As to `O=S(=O)(Nc1ccc2c(CCC3CCN(Cc4ccccc4)CC3)noc2c1)c1ccccc1`, in experiment [1], the Ki was 14.1 nM.
As to `O=C1Cc2c(ccc3c(CCC4CCN(Cc5ccccc5)CC4)noc23)N1`, in experiment [1], the affinity, expressed as Ki, was 3.63 nM.
`O=C1Cc2cc3c(CCC4CCN(Cc5ccccc5)CC4)noc3cc2N1` [ICOPEZIL] gave a Ki in experiment [1] of 0.331 nM.

As usually defined, the Ki is the equilibrium dissociation constant of an inhibitor or competing ligand from its target. Lower therefore signals tighter binding. A word on the IC50: it is the concentration needed to halve the response being measured. High values mean weaker potency, low ones greater potency.
